Reference: patent publication US20230295086A1, “NOVEL PSILOCIN DERIVATIVES HAVING PRODRUG PROPERTIES” (COMPASS […], priority 2020, published 2023)
Marks after values point to notes of the source that are not given here.

Columns and labels:
[1] = Kinetic solubility assay (Example 11); conditions: 50 mM PB pH 7.4, target 200 μM, 24 hours shaking at room temperature, UPLC; test compound as hydrochloride
Experimental: Test and control compounds were diluted to 10 mM in DMSO and then further diluted 1 in 50 in 50 mM PB (pH 7.4) to a target concentration of 200 μM. Samples were vortexed for at least 2 minutes and then left to shake (800 rpm) at room temperature for 24 hours. Visual appearance was assessed before centrifugation and injection into a UPLC system to measure concentration. […] Each compound was tested in duplicate.

[2] = Shake flask Log D assay (Example 11); format: physicochemical; conditions: 1-Octanol / 100 mM PB pH 7.4, shake flask, LC-MS/MS; test compound as hydrochloride
Experimental: Test and control compounds were diluted to 10 mM in DMSO. 2 μl of each stock solution was aliquoted into tubes in duplicate. 1-Octanol saturated phosphate buffer (PB) (pH 7.4) was prepared by adding 1-Octanol into 100 ml of 100 mM PB (7.4). PB saturated 1-Octanol was prepared by adding 10 ml of 100 mM PB (7.4) into 100 ml of 1-Octanol. 149 μl of each solution was aliquoted into the corresponding tubes. These were then mixed vigorously for 2 minutes and shaken (800 rpm) at room temperature for one hour. The appropriate volume of buffer and 1-Octanol layer samples was aliquoted and diluted, before detection using LC-MS/MS.
Log D was calculated according to the following equation: […]

[3] = Pharmacokinetics in the mouse (plasma psilocin); format: in vivo, male C57BL/6J mice; conditions: IV, 0.3 mg/kg
Experimental: 27 male C57BL/6J mice weighing 22-25 g at time of purchase (Charles River UK) were group housed (3 s) in polypropylene cages. Mice were maintained on a normal phase 12 hr light-dark cycle (lights on from 07:00-19:00) with ad libitum access to standard pelleted diet (Envigo 2018) and filtered tap water. The holding room was maintained at 21±4° C. with a relative humidity of 55±15%.
Mice were weighed on the day of dosing and identified by a tail mark using a permanent marker pen. Food was not withdrawn on the day of dosing. […] The remaining animals were divided into two cohorts, with animals in the first cohort receiving a single oral dose of one of the test compounds and animals in the second cohort receiving a single intravenous dose (in a lateral tail vein) of one of the test compounds. Following treatment, animals dosed orally were bled by venesection from the lateral tail vein at 5, 15, 30, 45, 60, 120, and 240 minutes post-dosing. Animals dosed intravenously were bled by venesection from the opposite lateral tail vein at the same timepoints. […] All compounds were formulated in saline and dosed in a volume of 5 ml/kg.
25 μl of blood was collected per animal per timepoint. […] Psilocin levels within samples were determined using LC-MS/MS. All pharmacokinetic parameters were calculated manually. […]

[4] = target: T1, serotonin 2A (5-HT2A) receptor (Mus musculus, UniProt P35363); experiment: Head twitch response (HTR) in mice; format: in vivo, male C57BL/6J mice; conditions: oral gavage 0.3 mg/kg
T1 construct: tissue Charles River UK; host or cells: whole living male C57BL/6J mice (in vivo, oral gavage)

Micro shake flask Log D = conditions: Octanol:PBS 1:9, pH 7.4, 10 μM, six replicates; novel compounds as hemifumarate
Experimental: 6 replicates of each test compound were incubated at 10 μM in a 1:9 ratio of Octanol: PBS at pH 7.4. Following a two hour incubation at room temperature shaking at 600 rpm, the incubation plate was centrifuged for 15 minutes to separate the layers and then two aliquots were removed from the PBS layer. The first was left neat and the second was diluted 10-fold to give dilute samples. Internal standards were added to both the calibration curve and the PBS incubation samples for analysis on LC MS/MS.
All 6 replicates of the neat samples were averaged to give one value for each, with the same calculation performed for the dilute sample values.

[5] = Intake study: serum concentrations after oral ingestion by two volunteers; conditions: for c(Psilocin): study 2
Experimental: Two volunteers (1 M, 1 F) ingested about 1 mg of each one of P1 and M1 (Study 1) and P2 and M2 (Study 2) in gelatin capsules (exact amounts in Tables 3 and 4). One blood sample was collected prior to ingestion of the substances and served as a zero control. After ingestion samples were collected for about 8 h with increasing time intervals between sample taking (exact protocol in Tables 4 and 5). […] The obtained sera were transferred in plastic tubes and NaF (ca. 30 mg) and ascorbic acid (ca. 5 mg) were added to increase analytes stability.
200 μL serum were spiked with an internal standard solution (10 μL) and ACN (600 μL) was added to precipitate soluble proteins. Before mixing thoroughly ammonium formate (10 M, 200 μL) was added separate the aqueous from the organic phase. After centrifugation (6 min, 4,000×g), 500 μL of the organic phase were transferred into another vial and evaporated to dryness at 40° C. under a gentle stream of nitrogen. Samples were reconstituted in 100 μL mobile phase (A/B, 90/10, v/v) and used for analysis. For quantification a blank sample and a six point calibration (0.5, 1.0, 2.0, 5.0, 10, 20 ng/mL) in calf serum were prepared as described above.
The HPLC-MS system consisted of a Nexera X2 UHPLC system composed of three LC-30AD pumps, a DGU-30A3 degasser, a SIL-30AC autosampler, a CTO-10AS column oven and a CBM-20A controller (Shimadzu, Duisburg, Germany) coupled to a QTRAP 6500plus triple quadrupole linear ion trap mass spectrometer equipped with a TurbolonSpray Interface (Sciex, Darmstadt, Germany). The MS was operated in positive electrospray ionization mode. Data acquisition was performed in scheduled multiple reaction monitoring mode (detection window: 60 s) using Analyst software (version 1.7). MS parameters (declustering potential, entrance potential, collision energy, and collision cell exit potential) were optimized for all substances to obtain the best possible signal intensities (summary of the MRM parameters are given in Table 5). Ion source temperature and ion source voltage were set to 550° C. and +5500 V, respectively. Dwell time was 20 ms for every MRM transition. Curtain gas (N2) pressure was 35 psi, ion source gas 1 and 2 (compressed air) pressure were 50 and 60 psi, respectively, and collision gas (N2) pressure was set to “high.” Chromatographic separation was performed on a Kinetex® biphenyl column (100×2.1 mm, 2.6 μm particle size, Phenomenex, Aschaffenburg, Germany) with a corresponding guard column (SecurityGuard™ ULTRA Cartridges UHPLC Biphenyl for 2.1 mm ID columns, Phenomenex, Aschaffenburg, Germany). The autosampler and the column oven temperature were set to 10° C. and 40° C., respectively. The injection volume was 10 μL.

[6] = Stability of psilocin carbonates in 1% HCl; format: physicochemical; conditions: 37° C., approximately 26 hours, LC-MS
Experimental: 4 mg of each test compound was diluted in 2 ml distilled water to give a solution of 2 mg/ml. 2 ml of test compound solutions were then added to 2 ml of 2% (v/v) HCl in distilled water, yielding a final HCl concentration of […] (pH 0.5). Test solutions were incubated at 37° C. with continuous stirring for approximately 26 hours. Concentrations of parent compound and psilocin were analyzed at various timepoints using LC-MS. Concentrations of both parent prodrug and psilocin liberated were expressed relative to the starting concentration of parent prodrug.

[7] = serum, oral intake of about 1 mg prodrug, mean of 2 volunteers

T1 sequence (P35363 whole entry): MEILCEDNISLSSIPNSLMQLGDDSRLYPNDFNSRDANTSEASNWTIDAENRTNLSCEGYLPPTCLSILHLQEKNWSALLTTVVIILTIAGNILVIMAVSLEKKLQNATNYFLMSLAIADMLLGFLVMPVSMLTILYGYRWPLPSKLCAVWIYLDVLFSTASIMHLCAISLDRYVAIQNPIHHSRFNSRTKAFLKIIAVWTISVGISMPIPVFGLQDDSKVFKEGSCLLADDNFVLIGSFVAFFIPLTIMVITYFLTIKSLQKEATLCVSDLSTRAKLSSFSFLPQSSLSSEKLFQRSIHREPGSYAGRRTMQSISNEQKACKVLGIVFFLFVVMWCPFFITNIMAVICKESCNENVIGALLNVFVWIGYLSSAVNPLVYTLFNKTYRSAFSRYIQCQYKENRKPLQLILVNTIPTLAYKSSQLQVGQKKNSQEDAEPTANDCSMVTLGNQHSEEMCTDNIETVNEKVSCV

CN(C)CCc1c[nH]c2cccc(OC(=O)OCc3ccccc3)c12 [Psilocin-4-yl-benzylcarbonate, psilocin-4-yl benzyl carbonate]
Detected concentration [1]: 230 µM | Mean LogD [2]: 2.19 | Cmax (psilocin) [3]: approximately double that of psilocybin | Mean number of head twitches 0-15 mins ([4]; N = 8): 2.63 | Mean number of head twitches 30-45 mins ([4]; N = 8): 1.88 | Mean number of head twitches 45-60 mins ([4]; N = 8): 1.13 | Mean number of head twitches Total 0-60 mins ([4]; N = 8): 8.2 | Mean number of head twitches 15-30 mins ([4]; N = 8, 0.3 mg/kg): 4.13 | Mean number of head twitches 15-30 mins ([4]; N = 8, listed as Psilocin-4-yl-benylcarbonate, 0.3 mg/kg): of similar magnitude to that induced by psilocybin

CN(C)CCc1c[nH]c2cccc(OC(=O)OC(C)(C)C)c12 [Psilocin-4-yl-tert-butylcarbonate, psilocin-4-yl tert-butyl carbonate]
Mean number of head twitches 0-15 mins ([4]; N = 8): 3 | Mean number of head twitches 15-30 mins ([4]; N = 8): 2 | Mean number of head twitches 30-45 mins ([4]; N = 8): 1.5 | Mean number of head twitches 45-60 mins ([4]; N = 8): 0.13 | Mean number of head twitches Total 0-60 mins ([4]; N = 8): 6.48 | Mean LogD (Micro shake flask Log D): 1.50 | Parent prodrug itself in serum (not detected, LOD) ([5]; serum after oral ingestion of about 1 mg): < 0.07 ng/mL | Cmax of psilocin [5, 7]: 1.13 ± 0.01 ng/mL | Tmax of psilocin [5, 7]: 1.5 ± 0.933 h | elimination constant kel of psilocin [5, 7]: 0.0043 min⁻¹ | elimination half life t1/2 of psilocin [5, 7]: 2.67 h | c(Psilocin) ([5]; serum, test person A, oral P2 0.98 mg salt, 4 min, below LOQ, extrapolated): 0.16* ng/mL | c(Psilocin) ([5]; serum, test person A, oral P2 0.98 mg salt, 12 min, below LOQ, extrapolated): 0.16* ng/mL | c(Psilocin) ([5]; serum, test person A, oral P2 0.98 mg salt, 23 min, below LOQ, extrapolated): 0.21* ng/mL | c(Psilocin) ([5]; serum, test person A, oral P2 0.98 mg salt, 34 min, below LOQ, extrapolated): 0.22* ng/mL | c(Psilocin) ([5]; serum, test person A, oral P2 0.98 mg salt, 50 min): 0.43 ng/mL | c(Psilocin) ([5]; serum, test person A, oral P2 0.98 mg salt, 77 min): 0.57 ng/mL | c(Psilocin) ([5]; serum, test person A, oral P2 0.98 mg salt, 113 min): 0.99 ng/mL | c(Psilocin) ([5]; serum, test person A, oral P2 0.98 mg salt, 130 min): 1.14 ng/mL | c(Psilocin) ([5]; serum, test person A, oral P2 0.98 mg salt, 165 min): 0.96 ng/mL | c(Psilocin) ([5]; serum, test person A, oral P2 0.98 mg salt, 205 min): 0.83 ng/mL | c(Psilocin) ([5]; serum, test person A, oral P2 0.98 mg salt, 270 min): 0.66 ng/mL | c(Psilocin) ([5]; serum, test person A, oral P2 0.98 mg salt, 335 min): 0.47 ng/mL | c(Psilocin) ([5]; serum, test person A, oral P2 0.98 mg salt, 395 min): 0.40 ng/mL | c(Psilocin) ([5]; serum, test person A, oral P2 0.98 mg salt, 458 min, below LOQ, extrapolated): 0.30* ng/mL | c(Psilocin) ([5]; serum, test person B, oral P2 1.05 mg salt, 6 min, below LOQ, extrapolated): 0.24* ng/mL | c(Psilocin) ([5]; serum, test person B, oral P2 1.05 mg salt, 13 min, below LOQ, extrapolated): 0.26* ng/mL | c(Psilocin) ([5]; serum, test person B, oral P2 1.05 mg salt, 22 min): 0.48 ng/mL | c(Psilocin) ([5]; serum, test person B, oral P2 1.05 mg salt, 34 min): 0.75 ng/mL | c(Psilocin) ([5]; serum, test person B, oral P2 1.05 mg salt, 50 min): 1.12 ng/mL | c(Psilocin) ([5]; serum, test person B, oral P2 1.05 mg salt, 77 min): 1.12 ng/mL | c(Psilocin) ([5]; serum, test person B, oral P2 1.05 mg salt, 100 min): 0.92 ng/mL | c(Psilocin) ([5]; serum, test person B, oral P2 1.05 mg salt, 127 min): 0.73 ng/mL | c(Psilocin) ([5]; serum, test person B, oral P2 1.05 mg salt, 165 min): 0.53 ng/mL | c(Psilocin) ([5]; serum, test person B, oral P2 1.05 mg salt, 205 min): 0.51 ng/mL | c(Psilocin) ([5]; serum, test person B, oral P2 1.05 mg salt, 270 min): 0.40 ng/mL | c(Psilocin) ([5]; serum, test person B, oral P2 1.05 mg salt, 331 min): 0.33 ng/mL | c(Psilocin) ([5]; serum, test person B, oral P2 1.05 mg salt, 394 min, below LOQ, extrapolated): 0.30* ng/mL | c(Psilocin) ([5]; serum, test person B, oral P2 1.05 mg salt, 454 min, below LOQ, extrapolated): 0.29* ng/mL | Degradation of parent compound / conversion to psilocin [6]: rapid and complete chemical degradation to psilocin within approximately four hours
